Test results as given in US11236052B2, “Aminobenzimidazole derivatives, treatments, and methods of inhibiting histone deacetylase” (TRANSLATIONAL DRUG DEVELOPMENT, LLC, priority 2017, dated 2022).
Where two headings read alike, the source gives them in different places. Each block holds one compound with its values, some of them ahead of it.

Experiments:
SUDHL-10 = test: CellTiter-Glo cell viability assay, SUDHL-10; assay type: cell-based; conditions: Lymphoma; for IC50: Homo sapiens, SU-DHL10, SUDHL-10, 72 hours
Experimental: (§1) Cell Viability Assay—Cell viability was measured by the CellTiter-Glo® cell viability assay Promega (Madison, Wis.). The CellTiter-Glo® Luminescent Cell Viability Assay is a homogeneous method to determine the number of viable cells in culture based on quantitation of the ATP present, which signals the presence of metabolically active cells. Following treatment, CellTiter-Glo® is added to treatment wells and incubated at 37° C. luminescence values were measured at using a Molecular Devices Spectramax microplate reader.
(§2) Single Agent Studies—Cells were grown to 70% confluency, trypsinized, counted, and seeded in 96 well flat-bottom plates at a final concentration of 2.5×10^3-5×10^3 cells/well (Day 0). Cells were allowed to incubate in growth media for 24 hours. Treatment with the test agents began on Day 1 and continued for 72 hours. At the 72-hour time point, treatment-containing media was removed. Viable cell numbers are quantified by the CellTiter-Glo® cell viability assay as described above. Experiments were run with triplicate concentrations to determine growth inhibitory activity. Results from these studies were used to calculate an IC50 value (concentration of drug that inhibits cell growth by 50 percent of control) for each compound.
(§3) Data Collection—For single agent and combination studies, data from each experiment was collected and expressed as % Cell Growth using the following calculation: % Cell Growth=(ftest/fvehicle)×100
(§4) Where ftest is the luminescence of the tested sample, and fvehicle is the luminescence of the vehicle in which the drug is dissolved. Dose response graphs and IC50 values were generated using Prism 6 software (GraphPad).

K562 = test: CellTiter-Glo cell viability assay, K562; assay type: cell-based; conditions: CML; for IC50: Homo sapiens, K562, 72 hours
Experimental: as §1, §2, §3, §4

U251 = test: CellTiter-Glo cell viability assay, U251; assay type: cell-based; conditions: GBM; for IC50: Homo sapiens, U-251, U251, 72 hours
Experimental: as §1, §2, §3, §4

KMS-11 = test: CellTiter-Glo cell viability assay, KMS-11; assay type: cell-based; conditions: Myeloma; for IC50: Homo sapiens, KMS-11, 72 hours
Experimental: as §1, §2, §3, §4

H929 = test: CellTiter-Glo cell viability assay, H929; assay type: cell-based; conditions: Myeloma; for IC50: Homo sapiens, NCI-H929, H929, 72 hours
Experimental: as §1, §2, §3, §4

KMS-34 = test: CellTiter-Glo cell viability assay, KMS-34; assay type: cell-based; conditions: Myeloma; for IC50: KMS-34, 72 hours
Experimental: as §1, §2, §3, §4

MDA-157 = test: CellTiter-Glo cell viability assay, MDA-157; assay type: cell-based; conditions: Breast; for IC50: MDA-157, 72 hours
Experimental: as §1, §2, §3, §4

SNG-M = test: CellTiter-Glo cell viability assay, SNG-M; assay type: cell-based; conditions: Uterine; for IC50: 72 hours
Experimental: as §1, §2, §3, §4

H1437 = test: CellTiter-Glo cell viability assay, H1437; assay type: cell-based; conditions: NSCLC; for IC50: Homo sapiens, NCI-H1437, H1437, 72 hours
Experimental: as §1, §2, §3, §4

JEKO = test: CellTiter-Glo cell viability assay, JEKO; assay type: cell-based; conditions: Lymphoma; for IC50: 72 hours
Experimental: as §1, §2, §3, §4

GIST48 = test: CellTiter-Glo cell viability assay, GIST48; assay type: cell-based; conditions: GIST; for IC50: Homo sapiens, GIST48, 72 hours
Experimental: as §1, §2, §3, §4

MM1.S cells = test: CellTiter-Glo cell viability assay, MM1.S cells; assay type: cell-based, human; conditions: for IC50: Homo sapiens
Experimental: Cell viability in the presence of varying concentrations of the above listed compounds at different time points was used to assess cytotoxicity and the effect of the compounds on cell proliferation.
as §1, with “CellTiter-GlO®” for “CellTiter-Glo®”, “assay from” for “assay”, “reader” for “reader.”
as §2, with “agents or standard agents” for “agents”, “72 hour timepoint, treatment containing” for “72-hour time point, treatment-containing”, “CellTiter-GlO®” for “CellTiter-Glo®”, “above.” for “above. Experiments were run with triplicate concentrations to determine growth inhibitory activity.”
Data Collection—For single agent and combination studies, data from each experiment was collected and expressed as % Cell Growth using the following calculation: Cell Growth=(ftest/fvehicle)×100
Where ftest is the fluorescence of the tested sample, and fvehicle is the fluorescence of the vehicle in which the drug is dissolved. Dose response graphs and IC50 values were generated using Prism 6 software (GraphPad) using the following equation: […]
Where X is the logarithm of concentration and Y is the response. Y starts at the Bottom and goes to Top with a sigmoid shape.
as §1, §2, §3, §4

RS4-11 = test: CellTiter-Glo cell viability assay, RS4-11; assay type: cell-based; conditions: ALL; for IC50: Homo sapiens, RS4-11, 72 hours
Experimental: as §1, §2, §3, §4

A2780 = test: CellTiter-Glo cell viability assay, A2780; assay type: cell-based; conditions: Ovarian; for IC50: Homo sapiens, A2780, 72 hours
Experimental: as §1, §2, §3, §4

GIST882 = test: CellTiter-Glo cell viability assay, GIST882; assay type: cell-based; conditions: GIST; for IC50: Homo sapiens, GIST882, 72 hours
Experimental: as §1, §2, §3, §4

S9 in vitro half-life = assay type: in vitro ADME; conditions: S9 fraction
MFE280 = test: CellTiter-Glo cell viability assay, MFE280; assay type: cell-based; conditions: Uterine; for IC50: Homo sapiens, MFE-280, MFE280, 72 hours
Experimental: as §1, §2, §3, §4

MV411 = test: CellTiter-Glo cell viability assay, MV411; assay type: cell-based; conditions: AML; for IC50: Homo sapiens, MV4-11, MV411, 72 hours
Experimental: as §1, §2, §3, §4

OCI-LY3 = test: CellTiter-Glo cell viability assay, OCI-LY3; assay type: cell-based; conditions: Lymphoma; for IC50: Homo sapiens, OCI-LY3, 72 hours
Experimental: as §1, §2, §3, §4

RAMOS = test: CellTiter-Glo cell viability assay, RAMOS; assay type: cell-based; conditions: Lymphoma; for IC50: Homo sapiens, 72 hours
Experimental: as §1, §2, §3, §4

Ishikawa = test: CellTiter-Glo cell viability assay, Ishikawa; assay type: cell-based; conditions: Uterine; for IC50: Homo sapiens, 72 hours
Experimental: as §1, §2, §3, §4

[1] = MM1.S cells, 72 hours treatment, read-out: IC50 in MM1.S
[2] = Myeloma, MM1.S, 72 hours (Table 3), read-out: IC50

IC50 (SUDHL-10): 1.51 µM
IC50 (K562): 5.25 µM
IC50 (U251): 4.07 µM
IC50 (H929): 1.38 µM
IC50 (H1437): 4.79 µM
IC50 (MM1.S cells; [1]): 2.1 µM
IC50 (MM1.S cells; [2]): 2.09 µM
IC50 (RS4-11): 2.44 µM
IC50 (A2780): 5.58 µM
half-life (S9 in vitro half-life): 1.22 h
IC50 (MV411): 2.75 µM
IC50 (OCI-LY3): 2.29 µM
IC50 (RAMOS): 2.88 µM
SMILES: O=C(NO)c1ccc(Nc2nc3ccccc3n2C2CCCCCC2)cc1 [ID #3, 4-((1-cycloheptyl-1H-benzo[d]imidazol-2-yl)amino)-N-hydroxybenzamide]
IC50 (KMS-11): 3.02 µM
IC50 (KMS-34): 1.36 µM
IC50 (MDA-157): 7.59 µM
IC50 (SNG-M): 8.07 µM
IC50 (JEKO): 2.22 µM
IC50 (GIST48): 4.24 µM
IC50 (GIST882): 17.8 µM
IC50 (MFE280): 9.71 µM
IC50 (Ishikawa): 4.37 µM

IC50 (SUDHL-10): 0.55 µM
IC50 (K562): 1.58 µM
IC50 (U251): 1.58 µM
IC50 (H929): 0.83 µM
IC50 (H1437): 2.19 µM
IC50 (MM1.S cells; [1]): 0.5 µM
IC50 (MM1.S cells; [2]): 0.5 µM
IC50 (RS4-11): 1.1 µM
IC50 (A2780): 2.03 µM
half-life (S9 in vitro half-life): 1.25 h
IC50 (MV411): 0.63 µM
IC50 (OCI-LY3): 1.05 µM
IC50 (RAMOS): 1.38 µM
SMILES: O=C(NO)c1ccc(Nc2nc3ccccc3n2CC2CCCCC2)cc1 [ID #1, 4-((1-(cyclohexylmethyl)-1H-benzo[d]imidazol-2-yl)amino)-N-hydroxybenzamide]
Improvement ID #1 over ID #3 Percent (SUDHL-10; SUDHL-10): 63.58%
Improvement ID #1 over ID #3 fold (SUDHL-10; SUDHL-10): 2.75 fold
Improvement ID #1 over ID #3 Percent (K562; K562): 69.90%
Improvement ID #1 over ID #3 fold (K562; K562): 3.32 fold
Improvement ID #1 over ID #3 Percent (U251; U251): 61.18%
Improvement ID #1 over ID #3 fold (U251; U251): 2.58 fold
IC50 (KMS-11): 1.42 µM
Improvement ID #1 over ID #3 Percent (KMS-11; KMS-11): 52.98%
Improvement ID #1 over ID #3 fold (KMS-11; KMS-11): 2.13 fold
Improvement ID #1 over ID #3 Percent (H929; H929): 39.86%
Improvement ID #1 over ID #3 fold (H929; H929): 1.66 fold
Improvement ID #1 over ID #3 Percent (KMS-34; KMS-34): 55.15%
Improvement ID #1 over ID #3 fold (KMS-34; KMS-34): 2.23 fold
IC50 (KMS-34): 0.61 µM
Improvement ID #1 over ID #3 Percent (MDA-157; MDA-157): 63.77%
Improvement ID #1 over ID #3 fold (MDA-157; MDA-157): 2.76 fold
IC50 (MDA-157): 2.75 µM
Improvement ID #1 over ID #3 Percent (SNG-M): 78.93%
Improvement ID #1 over ID #3 fold (SNG-M): 4.75 fold
IC50 (SNG-M): 1.7 µM
Improvement ID #1 over ID #3 Percent (H1437; H1437): 54.28%
Improvement ID #1 over ID #3 fold (H1437; H1437): 2.19 fold
Improvement ID #1 over ID #3 Percent (JEKO): 56.31%
Improvement ID #1 over ID #3 fold (JEKO): 2.29 fold
IC50 (JEKO): 0.97 µM
Improvement ID #1 over ID #3 Percent (GIST48; GIST48): 68.87%
Improvement ID #1 over ID #3 fold (GIST48; GIST48): 3.21 fold
IC50 (GIST48): 1.32 µM
Improvement ID #1 over ID #3 Percent (MM1.S cells; Myeloma, MM1.S): 76.08%
Improvement ID #1 over ID #3 fold (MM1.S cells; Myeloma, MM1.S): 4.18 fold
Improvement ID #1 over ID #3 Percent (RS4-11; RS4-11): 54.92%
Improvement ID #1 over ID #3 fold (RS4-11; RS4-11): 2.22 fold
Improvement ID #1 over ID #3 Percent (A2780; A2780): 63.62%
Improvement ID #1 over ID #3 fold (A2780; A2780): 2.75 fold
Improvement ID #1 over ID #3 Percent (GIST882; GIST882): 67.66%
Improvement ID #1 over ID #3 fold (GIST882; GIST882): 3.09 fold
IC50 (GIST882): 5.75 µM
IC50 (MFE280): 5.01 µM
Improvement ID #1 over ID #3 Percent (MFE280; MFE280): 48.40%
Improvement ID #1 over ID #3 fold (MFE280; MFE280): 1.94 fold
Improvement ID #1 over ID #3 Percent (MV411; MV411): 77.09%
Improvement ID #1 over ID #3 fold (MV411; MV411): 4.37 fold
Improvement ID #1 over ID #3 Percent (OCI-LY3; OCI-LY3): 54.15%
Improvement ID #1 over ID #3 fold (OCI-LY3; OCI-LY3): 2.18 fold
Improvement ID #1 over ID #3 Percent (RAMOS): 52.08%
Improvement ID #1 over ID #3 fold (RAMOS): 2.09 fold
IC50 (Ishikawa): 1.7 µM
Improvement ID #1 over ID #3 Percent (Ishikawa): 61.10%
Improvement ID #1 over ID #3 fold (Ishikawa): 2.57 fold
